Test results reported in paper PMC4031293 (Molecular pharmaceutics, 2014).
“Also recorded” adds a separate entry of the source. Structures can show the parent of a compound that is named as a salt. Where two headings read alike, the source gives them in different places.

What was measured:
[1] = cited from earlier work
[2] = pseudo steady-state blood CsA and plasma NFV concentrations in rats; type: in vivo, rat
P-gp [3] = conditions: cited from earlier work; for increase in brain distribution in mdr1a/b(−/−) vs. wild-type mice: 2, 3
BCRP = conditions: cited from earlier work
P-gp [4] = target: P-gp (Rattus norvegicus, UniProt Q6PSM0); experiment: in vivo; conditions: Sprague Dawley; for Kp at 2 h: absence of CsA, 120 min; for Kp at 120 min: with maximum P-gp inhibition by CsA
P-gp at the human BBB [5] = conditions: for predicted increase in NFV human brain:plasma concentration ratio: prediction based on the rat study alone
P-gp at the rat BBB [6] = target: T1, P-gp at the rat BBB (Rattus norvegicus, UniProt Q6PSM0); conditions: from brain:plasma ratios 0.044 and 0.93
P-gp at the human BBB [7] = conditions: tariquidar 6 mg/kg; cited from earlier work
P-gp [8] = conditions: P-gp chemically inhibited, mouse or rat; 4; 5; cited from earlier work
P-gp at the rat BBB [9] = target: T1, P-gp at the rat BBB; conditions: 5.6 µM CsA blood concentration; 18; cited from earlier work
[10] = tested on: intracerebral human glioblastoma; conditions: co-administration with paclitaxel compared to paclitaxel alone; cited from earlier work

Sequence of P-gp (Rattus norvegicus, UniProt Q6PSM0) (Q6PSM0 1-1272): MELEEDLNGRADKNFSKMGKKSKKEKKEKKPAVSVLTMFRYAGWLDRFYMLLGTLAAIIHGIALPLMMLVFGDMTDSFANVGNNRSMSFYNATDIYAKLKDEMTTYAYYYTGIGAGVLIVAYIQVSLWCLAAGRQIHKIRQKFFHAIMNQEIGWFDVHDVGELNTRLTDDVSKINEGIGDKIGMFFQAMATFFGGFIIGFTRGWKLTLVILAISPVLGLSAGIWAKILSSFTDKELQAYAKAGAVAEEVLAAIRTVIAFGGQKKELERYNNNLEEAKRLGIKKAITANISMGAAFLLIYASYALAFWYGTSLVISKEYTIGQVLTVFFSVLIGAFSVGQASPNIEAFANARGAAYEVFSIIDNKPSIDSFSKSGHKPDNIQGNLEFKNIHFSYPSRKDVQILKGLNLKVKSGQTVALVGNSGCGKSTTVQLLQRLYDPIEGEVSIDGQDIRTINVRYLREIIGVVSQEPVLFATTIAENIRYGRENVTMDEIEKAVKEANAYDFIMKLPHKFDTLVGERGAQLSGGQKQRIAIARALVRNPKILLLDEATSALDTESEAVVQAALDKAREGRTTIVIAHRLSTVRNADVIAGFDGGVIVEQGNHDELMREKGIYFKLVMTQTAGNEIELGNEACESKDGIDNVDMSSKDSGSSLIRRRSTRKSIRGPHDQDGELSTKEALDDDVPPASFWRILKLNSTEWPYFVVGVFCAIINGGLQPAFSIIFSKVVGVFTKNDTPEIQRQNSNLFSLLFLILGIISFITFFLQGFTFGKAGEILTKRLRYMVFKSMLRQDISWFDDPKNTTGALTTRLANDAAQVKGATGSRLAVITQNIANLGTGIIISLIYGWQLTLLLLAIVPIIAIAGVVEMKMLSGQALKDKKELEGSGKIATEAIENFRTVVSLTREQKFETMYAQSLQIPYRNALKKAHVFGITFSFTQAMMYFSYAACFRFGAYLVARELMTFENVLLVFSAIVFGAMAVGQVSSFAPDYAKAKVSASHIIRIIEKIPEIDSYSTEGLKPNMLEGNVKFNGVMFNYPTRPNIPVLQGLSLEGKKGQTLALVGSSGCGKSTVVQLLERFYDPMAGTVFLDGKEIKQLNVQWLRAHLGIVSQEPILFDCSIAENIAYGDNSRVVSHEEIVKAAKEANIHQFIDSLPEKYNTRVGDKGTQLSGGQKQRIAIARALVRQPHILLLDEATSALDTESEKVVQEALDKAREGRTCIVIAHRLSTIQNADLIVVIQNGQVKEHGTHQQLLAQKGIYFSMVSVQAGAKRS
T1 sequence (Q6PSM0 1-1272): as above

## Cc1c(O)cccc1C(=O)N[C@@H](CSc1ccccc1)[C@H](O)CN1C[C@H]2CCCC[C@H]2C[C@H]1C(=O)NC(C)(C)C [NFV, Nelfinavir mesylate]
[1]
  blood: plasma ratio: 0.877
[2]; at 120 min, Student's t-test
  effect of CsA on pseudo steady-state plasma NFV concentration: did not significantly affect; also recorded: not significantly affected
[2]; i.v. bolus plus constant rate i.v. infusion
  time to pseudo steady-state NFV plasma concentration: ≤ 30 min
P-gp [3]
  increase in brain distribution in mdr1a/b(−/−) vs. wild-type mice: 3400%
P-gp [3]; 5
  increase in brain:blood concentration ratio in mdr1a/b(−/−) vs. wild-type mice: 3400%
BCRP
  substrate of BCRP: not a substrate
P-gp [4]; NFV brain:plasma concentration ratio corrected for vascular contamination
  Kp at 2 h: 0.014 ± 0.01
P-gp [4]; NFV brain:plasma concentration ratio, not corrected for vascular contamination
  Kp at 2 h: 0.044 ± 0.01
P-gp [4]; NFV brain:plasma ratio after vascular-content correction
  Kp at 120 min: 0.9 ± 0.16
P-gp [4]; NFV brain:plasma ratio, uncorrected for vascular content
  Kp at 120 min: 0.93 ± 0.16
P-gp at the human BBB [5]; CsA blood 1.5 µM
  predicted increase in NFV human brain:plasma concentration ratio: 236%
P-gp at the human BBB [5]; CsA blood 1.5 µM, rat data and in vitro LLCPK1-MDR1 data
  predicted increase in the NFV brain:plasma concentration ratio / distribution into the human brain: 241%
P-gp at the human BBB [5]; CsA blood 2.8 µM, in vitro data scaled using rat in vivo data
  predicted increase in the NFV brain:plasma concentration ratio at the human BBB: 555%
P-gp at the human BBB [5]; CsA blood 2.8 µM
  predicted increase in NFV human brain:plasma concentration ratio: 589%
P-gp at the rat BBB [6]
  ft(P-gp), not corrected for vascular content: 0.95

## CNC(=O)C(CCN1CCC(O)(c2ccc(Cl)cc2)CC1)(c1ccccc1)c1ccccc1 [dLop, N-desmethyl-loperamide]
P-gp at the human BBB [7]
  increase in distribution into the human brain: ≤ 300%

## CN(C)C(=O)C(CCN1CCC(O)(c2ccc(Cl)cc2)CC1)(c1ccccc1)c1ccccc1 [loperamide]
P-gp [8]
  increase in brain distribution in the presence vs. absence of the P-gp inhibitor: 1500%
P-gp [3]
  increase in brain distribution in mdr1a/b(−/−) vs. wild-type mice: 1200%
P-gp at the rat BBB [9]
  increase in total loperamide-radioactivity uptake into the brain of rats: 588%

## C/C=C/C[C@@H](C)C(=O)[C@H]1C(=O)N[C@@H](C(C)C)C(=O)N(C)CC(=O)N(C)[C@@H](CC(C)C)C(=O)N[C@@H](C(C)C)C(=O)N(C)[C@@H](CC(C)C)C(=O)N[C@@H](C)C(=O)N[C@H](C)C(=O)N(C)[C@@H](CC(C)C)C(=O)N(C)[C@@H](CC(C)C)C(=O)N(C)[C@@H](C(C)C)C(=O)N1C [PSC833]
[10]
  brain tumor volume: significant reduction in the brain tumor volume
